Assay results: patent US20030191323A1, “Hypoglycemic agent” (Ajinomoto Co., Inc., priority 2000, published 2003)

Structure (SMILES) | melting point [°C]
O=C(Nc1ccccc1S(=O)(=O)NC(=O)c1ccccc1)c1cccc(OCc2ccccc2)c1 [compound 3, N-[2-(3-Benzyloxybenzamido)benzenesulfonyl]-benzamide] | 201 to 202
CC(=O)NS(=O)(=O)c1ccccc1NC(=O)c1cccc(OCc2ccccc2)c1 [compound 4, N-[2-(3-Benzyloxybenzamido)benzenesulfonyl]acetamide] | 195 to 196
CCCCCC(=O)NS(=O)(=O)c1ccccc1NC(=O)c1cccc(OCc2ccccc2)c1 [compound 9, N-[2-(3-Benzyloxybenzamido)benzenesulfonyl]-n-hexanamide] | 133 to 134
CCCCCCCCCC(=O)NS(=O)(=O)c1ccccc1NC(=O)c1cccc(OCc2ccccc2)c1 [compound 10, N-[2-(3-Benzyloxybenzamido)benzenesulfonyl]-decanamide] | 85 to 86
CC(C)(C)C(=O)NS(=O)(=O)c1ccccc1NC(=O)c1cccc(OCc2ccc(C(C)(C)C)cc2)c1 [compound 14, N-[2-[3-(4-t-butylbenzyloxy)benzamido]benzenesulfonyl]pivalamide] | 193 to 194
CC(C)(C)c1ccc(COc2cccc(C(=O)Nc3ccccc3S(=O)(=O)NC(=O)/C=C/c3ccccc3)c2)cc1 [compound 15, N-[2-[3-(4-t-butylbenzyloxy)benzamido]benzenesulfonyl]cinnamamide] | 110 to 111
CCCCCCCCCC(=O)NS(=O)(=O)c1ccccc1NC(=O)c1cccc(OCc2ccc(Cl)cc2)c1 [compound 23, N-[2-[3-(4-Chlorobenzyloxy)benzamido]benzenesulfonyl]decanamide] | 159 to 161
CC(=O)NS(=O)(=O)c1ccccc1NC(=O)c1cccc(OCC2CCCCC2)c1 [compound 33, N-[2-(3-Cyclohexylmethoxybenzamido)benzenesulfonyl]acetamide] | 164 to 167
CCCCCCCCCC(=O)NS(=O)(=O)c1ccccc1NC(=O)c1cccc(OCC2CCCCC2)c1 [compound 35, N-[2-(3-Cyclohexylmethoxybenzamido)benzenesulfonyl]decanamide] | 124 to 127
CC(=O)NS(=O)(=O)c1ccccc1NC(=O)c1cccc(OCc2ccc(C(C)(C)C)cc2)c1 [compound 36, N-[2-[3-(4-t-Butylbenzyloxy)benzamido]benzenesulfonyl]acetamide] | 190 to 191
CCCCCC(=O)NS(=O)(=O)c1ccccc1NC(=O)c1cccc(OCc2ccc(C(C)(C)C)cc2)c1 [compound 37, N-[2-[3-(4-t-Butylbenzyloxy)benzamido]benzenesulfonyl]hexanamide] | 163 to 164
CCCCCCCOc1cccc(C(=O)Nc2ccccc2S(=O)(=O)NC(C)=O)c1 [compound 44, N-[2-(3-Heptyloxybenzamido)benzenesulfonyl]acetamide] | 194 to 195
CCCCCCCOc1cccc(C(=O)Nc2ccccc2S(=O)(=O)NC(=O)CCCCC)c1 [compound 45, N-[2-(3-Heptyloxybenzamido)benzenesulfonyl]hexanamide] | 200 to 201
CC(C)=CC(=O)NS(=O)(=O)c1ccccc1NC(=O)c1ccc(C#Cc2ccccc2)cc1 [compound 52, 3-Methyl-N-[2-(4-phenylethynylbenzamido)benzenesulfonyl]-2-butenamide] | 187 to 188

Further lines, results first:

melting point [°C] | Structure (SMILES)
163 to 164 | O=C(NS(=O)(=O)c1ccccc1NC(=O)c1cccc(OCc2ccccc2)c1)Oc1ccccc1
177 to 178 | CCCCNC(=O)NS(=O)(=O)c1ccccc1NC(=O)c1cccc(OCc2ccccc2)c1
124 to 125 | CCCCCCCCNC(=O)NS(=O)(=O)c1ccccc1NC(=O)c1cccc(OCc2ccccc2)c1
172 to 173 | O=C(Nc1ccccc1S(=O)(=O)NC(=O)c1cccc(OCc2ccccc2)c1)c1cccc(OCc2ccccc2)c1 [compound 2, N-[2-(3-Benzyloxybenzamido)benzenesulfonyl]-3-benzyloxybenzamide]
220 to 221 | O=C(Nc1ccccc1S(=O)(=O)NC(=O)c1ccc(C(F)(F)F)cc1)c1cccc(OCc2ccccc2)c1 [compound 5, N-[2-(3-Benzyloxybenzamido)benzenesulfonyl]-4-trifluoromethylbenzamide]
233 to 234 | O=C(Nc1ccccc1S(=O)(=O)NC(=O)c1ccc([N+](=O)[O-])cc1)c1cccc(OCc2ccccc2)c1 [compound 6, N-[2-(3-benzyloxybenzamido)benzenesulfonyl]-4-nitrobenzamide]
189 to 190 | COc1ccc(C(=O)NS(=O)(=O)c2ccccc2NC(=O)c2cccc(OCc3ccccc3)c2)cc1 [compound 7, N-[2-(3-benzyloxybenzamido)benzenesulfonyl]-4-methoxybenzamide]
129 to 130 | CCCCCCCCCC(=O)NS(=O)(=O)c1ccccc1NC(=O)c1ccc([N+](=O)[O-])c(OCc2ccccc2)c1 [compound 19, N-[2-(3-benzyloxy-4-nitrobenzamido)benzenesulfonyl]decanamide]
148 to 149 | CCCCCC(=O)NS(=O)(=O)c1ccccc1NC(=O)c1cccc(OCc2ccc(Cl)cc2)c1 [compound 22, N-[2-[3-(4-Chlorobenzyloxy)benzamido]benzenesulfonyl]hexanamide]
189 to 192 | CC(=O)NS(=O)(=O)c1ccccc1NC(=O)c1cccc(OCc2ccc([N+](=O)[O-])cc2)c1 [compound 25, N-[2-[3-(4-Nitrobenzyloxy)benzamido]benzenesulfonyl]acetamide]
145 to 148 | CCCCCCCCCC(=O)NS(=O)(=O)c1ccccc1NC(=O)c1cccc(OCc2ccc([N+](=O)[O-])cc2)c1 [compound 27, N-[2-[3-(4-nitrobenzyloxy)benzamido]benzenesulfonyl]decanamide]
114 to 117 | COc1ccc(COc2cccc(C(=O)Nc3ccccc3S(=O)(=O)NC(C)=O)c2)cc1 [compound 29, N-[2-[3-(4-Methoxybenzyloxy)benzamido]benzenesulfonyl]acetamide]
148 to 149 | CCCCCCCCCC(=O)NS(=O)(=O)c1ccccc1NC(=O)c1cccc(OCc2ccc(OC)cc2)c1 [compound 31, N-[2-[3-(4-Methoxybenzyloxy)benzamido]benzenesulfonyl]decanamide]
132 to 133 | CCCCCCCCCC(=O)NS(=O)(=O)c1ccccc1NC(=O)c1cccc(OCc2ccc(C(C)(C)C)cc2)c1 [compound 38, N-[2-[3-(4-t-Butylbenzyloxy)benzamido]benzenesulfonyl]decanamide]
164 | CCCCCCCCCC(=O)NS(=O)(=O)c1ccccc1NC(=O)c1cccc(OCc2ccc(C(F)(F)F)cc2)c1 [compound 42, N-[2-[3-(4-Trifluoromethylbenzyloxy)benzamido]benzenesulfonyl]decanamide]
214 to 215 | CC(=O)NS(=O)(=O)c1ccccc1NC(=O)c1ccc(C#Cc2ccccc2)cc1 [compound 48, N-[2-(4-Phenylethynylbenzamido)benzenesulfonyl]acetamide]
155 to 156 | CCCCCCCCCC(=O)NS(=O)(=O)c1ccccc1NC(=O)c1ccc(C#Cc2ccccc2)cc1 [compound 50, N-[2-(4-Phenylethynylbenzamido)benzenesulfonyl]decanamide]
